Test results from patent US12303614B2, “Compositions and methods for improving mechanical properties of a tissue or for regenerating an injured or diseased tissue” (University of Rochester, priority 2019, dated 2025).
Entries after “also recorded” stand apart in the source; their conditions may differ.

How the values were obtained:
[1] = test system: HH43 chick embryo calcaneal tendons; test: Calcaneal tendon elastic modulus by force volume-AFM after in ovo treatment; format: in vivo; details: HH43 chick embryos, 48 h; for calcaneal tendon elastic modulus relative to controls: single in ovo injection, vs saline
Method: (§1) Fertilized white leghorn eggs (University of Connecticut poultry farm) were incubated at 37° C. under high humidity. For developmental characterizations, eggs were not injected. For other experiments, a single dose of sterile saline (control), 0.2% DMB (rigid paralysis), 0.2% pancuronium bromide (PB) (flaccid paralysis), 0.2% 4-AP (hypermotility), or 0.2% 4-AP and 5 mg BAPN per gram of embryo dry mass (to simultaneously induce hypermotility and inhibition of LOX activity) was injected at the air sac end of an HH43 egg and incubated for another 48 h, as previously described (10). DMB dosage was based on previous studies that paralyzed the embryo without affecting gross development (3). […] At specific timepoints, chick embryos were sacrificed by decapitation and staged based on anatomical features (15). The calcaneal tendon was homogenized in TRIzol LS reagent, snap frozen for protein and enzyme assays, or embedded for cryosectioning.
(§2) Calcaneal tendons of staged embryos were cryoembedded as previously described (10) and cryosectioned at 50 μm thickness.
Force volume-AFM was used to characterize tendon elastic modulus using previously established methods (10). Briefly, tendon cryosections were immersed in PBS to remove O.C.T. A silicon nitride tip probe (˜20 nm radius) with a spring constant of 0.06 N/m (BRUKER, CA) was used on an MFP-3D AFM (ASYLUM RESEARCH, CA) to obtain force curves in a 64×64 2-dimensional array over a 10 μm×10 μm tissue region in the center of the tendon midsubstance with a 1.0 μm indentation trigger point. The sample was indented at 6 μm/s, at which tendon elastic properties were previously characterized with negligible viscous effects (10). Elastic modulus was calculated by fitting force displacement curves at each indentation to the Hertzian model using equations adapted from a previous study (10).

[2] = test system: HH43 chick embryo calcaneal tendons; test: Fibrillar collagen content and organization by F-SHG two photon microscopy; format: in vivo; details: HH43 chick embryos, 48 h
Method: as §1, §2
Tendon cryosections were immersed in Ca^2+/Mg^2+-free phosphate buffered saline (PBS) to remove O.C.T. A 20× water objective imaged a 220×220 μm region in the center of tendon midsubstance in PBS. Collagen was characterized by F-SHG at 800 nm excitation, and signal was collected by a photomultiplier tube using a 405DF30 filter. Background was determined with laser off. Background was subtracted from each F-SHG image using MATLAB (MATHWORKS, MA) and then average pixel intensities of each image were calculated to assess collagen content per unit area.

HH43 chick embryos = test: Gross development: anatomical staging and leg appearance of treated embryos; format: in vivo
Method: as §1

LOX activity = LOX activity assay of calcaneal tendons after in ovo treatment; format: in vivo, chick; details: HH43 embryos treated in ovo, 48 h; for reduction of LOX activity levels of calcaneal tendons compared to saline controls: p<0.05
Method: as §1
Western blot to semi-quantitatively measure proLOX levels was performed with rabbit anti-proLOX antibody or rabbit anti-β-actin antibody (ABCAM, MA). ProLOX and β-actin levels were quantified by densitometry at ˜50 kDa and ˜40 kDa molecular bands, respectively. LOX activity of each sample was measured using a LOX activity assay kit (ABCAM, MA). Recombinant LOXL2 enzyme (R&D Systems, MN) was used as a positive control for each assay.

[3] = test system: HH43 chick embryo calcaneal tendons; test: Collagen crosslink density analysis (HP/collagen) after paralysis; format: in vivo; details: HH43 chick embryos, injections at 0 h and 24 h, 48 h of paralysis
Method: Briefly, HH43 chick embryos were either treated with saline (vehicle control), decamethonium bromide (DMB, THERMO FISHER), or pancuronium bromide (PB, THERMO FISHER). Treatments of DMB and PB were performed at 0 h and 24 h by injection through the air-pocket of each egg. After the 48 h of treatments, each embryo was sacrificed by decapitation, was staged, and the calcaneal tendons were dissected for collagen cross-link density analysis. For each biological sample (N=1), 5 tendons were pooled together (5 left calcaneal tendons from 5 chick embryos). In this experiment, collagen crosslink density analysis was performed for biological samples.

chick embryos [4] = test: Embryo movement frequency after injection; format: in vivo; details: within 1 min of injection, lasted 48 h (data not shown)
Method: as §1

chick embryos [5] = details: HH36 to HH44 chick embryos, for at least 24 h, previous studies (14); cited from earlier work
[6] = treated at HH43, harvested after 48 h, compared with non-injected HH45
[7] = treated at HH43 for 48 h, N ≥ 6, expected stage HH45

SMILES | calcaneal tendon elastic modulus relative to controls [1] | apparent collagen organization [2] | gross appearance of legs at harvest (HH43 chick embryos; [6]) | Stage (HH) of embryos at harvest (mean ± standard deviation (std)) (HH43 chick embryos; [7]) [HH] | reduction of calcaneal tendon modulus relative to controls ([1]; paralysis) [fold] | collagen content relative to controls [2] | LOX activity levels in calcaneal tendons compared to controls (LOX activity) | reduction of LOX activity levels of calcaneal tendons compared to saline controls (LOX activity) [fold] | Stage (HH) of embryos at harvest (mean ± standard deviation (std)) (HH43 chick embryos; in vivo) [HH] | gross appearance of legs at harvest (HH43 chick embryos; in vivo) | hydroxylysyl pyridinoline (HP)/collagen ratio compared to saline-treated tendons [3] | increase of calcaneal tendon modulus relative to controls ([1]; hypermotility) [fold] | increase of embryo movement frequency (chick embryos [4]) [%] | hypermotility induced by a single injection (chick embryos [5])
N#CCCN [BAPN, β-aminopropionitrile] | reduced | appeared normal | appeared similar to non-injected HH45 legs | 45 ± 0.5 |  |  |  |  |  |  |  |  |  | 
C[N+](C)(C)CCCCCCCCCC[N+](C)(C)C [DMB, decamethonium bromide] | significantly reduced | Neither treatment affected |  |  | 2 | Neither treatment affected | significantly reduced | 2 | 45 ± 0.4 | hyperextended digits | lower |  |  | 
Nc1ccncc1 [4-AP, 4-aminopyridine] | significantly upregulated; also recorded: higher | Neither treatment affected; also recorded: appeared normal | appeared similar to non-injected HH45 legs | 45 ± 0.4 |  | Neither treatment affected | no effects |  |  |  |  | 2 | 200 | up to 400%
CC(=O)O[C@H]1C[C@@H]2CC[C@@H]3[C@H](CC[C@@]4(C)[C@H]3C[C@H]([N+]3(C)CCCCC3)[C@@H]4OC(C)=O)[C@@]2(C)C[C@@H]1[N+]1(C)CCCCC1 [PB, pancuronium bromide] |  |  |  |  |  |  | significantly lower | 2 |  |  | lower |  |  | 
